In patent US8772480B2, “Inhibitors of PI3 kinase and/or mTOR” (priority 2009, dated 2014):
Where two headings read alike, the source gives them in different places.

Assays:
[1] = tested on: phosphorylation of Akt at Serine 473 in U87 MG cells; assay: cells; conditions: Homo sapiens, U-87 MG, 2 h
PI3Kα = PI3Kα (Homo sapiens (Human), UniProt P42336); conditions: read-out: PI3Kα AlphaScreen ® Ki
[2] = read-out: U87Cell IC50, pAkt (Ser 473), U87 MG cells, two hours with compound

Sequence of PI3Kα (P42336 whole entry): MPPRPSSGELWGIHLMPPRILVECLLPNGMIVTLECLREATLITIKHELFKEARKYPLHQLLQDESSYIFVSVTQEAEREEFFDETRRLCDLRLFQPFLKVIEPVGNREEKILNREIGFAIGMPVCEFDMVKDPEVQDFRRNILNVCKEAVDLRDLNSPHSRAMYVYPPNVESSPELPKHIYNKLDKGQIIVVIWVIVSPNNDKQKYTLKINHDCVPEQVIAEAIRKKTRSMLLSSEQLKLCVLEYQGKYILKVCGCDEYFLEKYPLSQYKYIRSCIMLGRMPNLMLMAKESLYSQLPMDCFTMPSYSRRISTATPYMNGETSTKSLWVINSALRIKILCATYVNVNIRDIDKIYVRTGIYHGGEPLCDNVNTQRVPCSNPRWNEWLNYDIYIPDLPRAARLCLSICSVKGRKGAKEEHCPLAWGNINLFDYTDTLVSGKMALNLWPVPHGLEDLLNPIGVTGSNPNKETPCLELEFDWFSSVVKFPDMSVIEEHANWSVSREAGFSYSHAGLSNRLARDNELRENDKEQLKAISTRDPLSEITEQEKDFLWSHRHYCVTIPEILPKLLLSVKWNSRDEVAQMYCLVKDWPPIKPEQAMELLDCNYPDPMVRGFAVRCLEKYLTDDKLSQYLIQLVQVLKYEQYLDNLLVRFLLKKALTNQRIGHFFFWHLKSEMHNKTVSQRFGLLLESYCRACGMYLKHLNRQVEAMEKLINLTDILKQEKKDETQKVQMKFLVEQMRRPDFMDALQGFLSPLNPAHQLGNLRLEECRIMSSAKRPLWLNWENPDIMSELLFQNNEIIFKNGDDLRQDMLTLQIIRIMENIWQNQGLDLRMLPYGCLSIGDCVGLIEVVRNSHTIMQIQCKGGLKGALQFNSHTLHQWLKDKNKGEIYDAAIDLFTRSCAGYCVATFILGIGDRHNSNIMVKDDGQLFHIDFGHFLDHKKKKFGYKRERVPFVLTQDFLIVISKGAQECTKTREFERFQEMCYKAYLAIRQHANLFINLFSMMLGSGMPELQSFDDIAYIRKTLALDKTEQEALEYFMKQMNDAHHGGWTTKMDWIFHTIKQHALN
Sequence of PI3Kα (P27986 whole entry partner): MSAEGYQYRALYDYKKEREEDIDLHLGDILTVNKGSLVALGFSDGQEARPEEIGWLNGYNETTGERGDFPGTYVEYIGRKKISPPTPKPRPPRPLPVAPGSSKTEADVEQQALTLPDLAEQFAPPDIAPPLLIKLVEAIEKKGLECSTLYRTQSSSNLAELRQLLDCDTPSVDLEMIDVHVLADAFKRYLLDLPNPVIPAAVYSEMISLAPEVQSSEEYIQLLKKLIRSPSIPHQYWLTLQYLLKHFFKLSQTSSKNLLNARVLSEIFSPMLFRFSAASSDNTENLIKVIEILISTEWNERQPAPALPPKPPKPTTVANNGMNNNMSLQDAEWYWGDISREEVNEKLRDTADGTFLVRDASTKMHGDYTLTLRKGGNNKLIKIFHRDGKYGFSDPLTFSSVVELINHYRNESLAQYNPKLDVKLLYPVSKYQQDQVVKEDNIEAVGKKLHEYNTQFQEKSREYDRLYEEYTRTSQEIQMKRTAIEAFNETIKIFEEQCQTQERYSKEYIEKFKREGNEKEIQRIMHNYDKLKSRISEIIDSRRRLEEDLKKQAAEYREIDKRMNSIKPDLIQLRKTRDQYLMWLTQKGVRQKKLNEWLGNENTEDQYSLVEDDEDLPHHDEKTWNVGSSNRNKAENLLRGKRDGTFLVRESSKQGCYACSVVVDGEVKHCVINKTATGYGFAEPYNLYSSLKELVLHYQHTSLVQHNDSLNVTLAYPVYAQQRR

Row | SMILES | IC50 [1, 2] [nM] | Ki (PI3Kα) [nM] | IC50 ([1]; read-out: U87Cell IC50) [nM]
1 | Cc1nc(N)nc(-c2cc(CN3CCN(S(C)(=O)=O)CC3)cnc2Nc2cn[nH]c2)n1 [Example 243, 4-(2-(1H-Pyrazol-4-Ylamino)-5-((4-(Methylsulfonyl)Piperazin-1-yl)Methyl)Pyridin-3-yl)-6-Methyl-1,3,5-Triazin-2-Amine] | 1520 | 163 | –
2 | Cc1nc(N)nc(-c2cc(CN3CCN(S(C)(=O)=O)CC3)cnc2Nc2cc[nH]n2)n1 [Example 244, 4-(2-(1H-Pyrazol-3-Ylamino)-5-((4-(Methylsulfonyl)Piperazin-1-yl)Methyl)Pyridin-3-yl)-6-Methyl-1,3,5-Triazin-2-Amine] | 1490 | 1460 | –
3 | COc1ccc(Nc2ncc(C3=CCNCC3)cc2-c2nc(C)nc(N)n2)cn1 [Example 249, 4-(2-(6-Methoxypyridin-3-Ylamino)-5-(1,2,3,6-Tetrahydropyridin-4-yl)Pyridin-3-yl)-6-Methyl-1,3,5-Triazin-2-Amine] | – | 21 | 88
4 | COc1ccc(Nc2ncc(-c3cn[nH]c3)cc2-c2nc(C)nc(N)n2)cn1 [Example 250, 4-(2-(6-Methoxypyridin-3-Ylamino)-5-(1H-Pyrazol-4-yl)Pyridin-3-yl)-6-Methyl-1,3,5-Triazin-2-Amine] | 46 | 11 | –
5 | COc1ccc(Nc2ncc(-c3cncc(F)c3)cc2-c2nc(C)nc(N)n2)cn1 [Example 253, 5-(4-Amino-6-Methyl-1,3,5-Triazin-2-yl)-5′-Fluoro-N-(6-Methoxypyridin-3-yl)-3,3′-Bipyridin-6-Amine] | 280 | 12 | –
6 | COc1ncc(Nc2nc(-c3cccnc3)ccc2-c2nc(C)nc(N)n2)cc1F [Example 255, 5-(4-Amino-6-Methyl-1,3,5-Triazin-2-yl)-N-(5-Fluoro-6-Methoxypyridin-3-yl)-2,3′-Bipyridin-6-Amine] | 37 | 4 | –
7 | Cc1nc(N)nc(-c2cc(-c3cnn(C)c3)cnc2Nc2cncc(F)c2)n1 [Example 258, 4-(2-(5-Fluoropyridin-3-Ylamino)-5-(1-Methyl-1H-Pyrazol-4-yl)Pyridin-3-yl)-6-Methyl-1,3,5-Triazin-2-Amine] | 192 | 14 | –
8 | COCCOc1ccc(-c2nc(C)nc(N)n2)c(Nc2cnc(OC)c(F)c2)n1 [Example 259, 4-(2-(5-Fluoro-6-Methoxypyridin-3-Ylamino)-6-(2-Methoxyethoxy)Pyridin-3-yl)-6-Methyl-1,3,5-Triazin-2-Amine] | 190 | 81 | –
9 | Cc1nc(N)nc(-c2cc(CN3CCN(S(C)(=O)=O)CC3)cnc2Nc2ccc3[nH]cnc3c2)n1 [Example 260, N-(3-(4-Amino-6-Methyl-1,3,5-Triazin-2-yl)-5-((4-(Methylsulfonyl)Piperazin-1-yl)Methyl)Pyridin-2-yl)-1H-Benzo[D]Imidazol-5-Amine] | 1030 | 16 | –
10 | CC(=O)Nc1ccc(Nc2ncc(Cl)cc2-c2nc(C)nc(N)n2)cc1F [Example 266, N-(4-(3-(4-Amino-6-Methyl-1,3,5-Triazin-2-yl)-5-Chloropyridin-2-Ylamino)-2-Fluorophenyl)Acetamide] | 1100 | 155 | –
11 | COc1ccc(Nc2ncc(C(C)(C)N)cc2-c2nc(C)nc(N)n2)cn1 [Example 277, 4-(5-(2-Aminopropan-2-yl)-2-(6-Methoxypyridin-3-Ylamino)Pyridin-3-yl)-6-Methyl-1,3,5-Triazin-2-Amine] | 170 | 56 | –
12 | COc1ncc(Nc2ncc(C(C)(C)N)cc2-c2nc(C)nc(N)n2)cc1F [Example 278, 4-(5-(2-Aminopropan-2-yl)-2-(5-Fluoro-6-Methoxypyridin-3-Ylamino)Pyridin-3-yl)-6-Methyl-1,3,5-Triazin-2-Amine] | 24 | 45 | –
13 | COc1ccc(Nc2ncc(C(C)(C)N3CCN(S(C)(=O)=O)CC3)cc2-c2nc(C)nc(N)n2)cn1 [Example 279, 4-(2-(6-Methoxypyridin-3-Ylamino)-5-(2-(4-(Methylsulfonyl)Piperazin-1-yl)Propan-2-yl)Pyridin-3-yl)-6-Methyl-1,3,5-Triazin-2-Amine] | 34 | 11 | –
14 | COc1ncc(Nc2ncc(C(C)(C)O)nc2-c2cc(N)nc(C)n2)cc1F [Example 284, 2-(6-(6-Amino-2-Methylpyrimidin-4-yl)-5-(5-Fluoro-6-Methoxypyridin-3-Ylamino)Pyrazin-2-yl)Propan-2-ol] | 63 | 31 | –
15 | COc1ccc(Nc2ncc(C(C)=O)nc2-c2cc(N)nc(C)n2)cn1 [Example 285, 1-(6-(6-Amino-2-Methylpyrimidin-4-yl)-5-(6-Methoxypyridin-3-Ylamino)Pyrazin-2-yl)Ethanone] | > 10000 | 103 | –
16 | COc1ccc(Nc2ncc(C(C)N3CCN(S(C)(=O)=O)CC3)nc2-c2cc(N)nc(C)n2)cn1 (stereo not shown) [Example 286, 6-(3-(6-Methoxypyridin-3-Ylamino)-6-(1-(4-(Methylsulfonyl)Piperazin-1-yl)Ethyl)Pyrazin-2-yl)-2-Methylpyrimidin-4-Amine] | 111 | 11 | –

Continued, in another order:

Row | IC50 [1, 2] [nM] | Ki (PI3Kα) [nM] | SMILES | IC50 ([1]; read-out: U87Cell IC50) [nM]
17 | 2300 | 442 | Cc1nc(N)nc(-c2cccnc2Nc2ccc(F)c(F)c2)n1 [Example 248] | –
18 | 151 | 60 | COc1ccc(Nc2ncc(-c3ccnnc3)cc2-c2nc(C)nc(N)n2)cn1 [Example 252, 4-(2-(6-Methoxypyridin-3-Ylamino)-5-(Pyridazin-4-yl)Pyridin-3-yl)-6-Methyl-1,3,5-Triazin-2-Amine] | –
19 | 583 | 67 | COc1ccc(Nc2nc(-c3cccnc3)ccc2-c2nc(C)nc(N)n2)cn1 [Example 254, 5-(4-Amino-6-Methyl-1,3,5-Triazin-2-yl)-N-(6-Methoxypyridin-3-yl)-2,3′-Bipyridin-6-Amine] | –
20 | > 10000 | 426 | Cc1nc(N)nc(-c2cc(Cl)cnc2Nc2cncc(F)c2)n1 [Example 257, 4-(5-Chloro-2-(5-Fluoropyridin-3-Ylamino)Pyridin-3-yl)-6-Methyl-1,3,5-Triazin-2-Amine] | –
21 | 2720 | 69 | Cc1nc(N)nc(-c2cc(CN3CCNCC3)cnc2Nc2ccc3[nH]cnc3c2)n1 [Example 261, N-(3-(4-Amino-6-Methyl-1,3,5-Triazin-2-yl)-5-(Piperazin-1-Ylmethyl)Pyridin-2-yl)-1H-Benzo[D]Imidazol-5-Amine] | –
22 | 180 | 47 | COc1ccc(Nc2ncc(OC(F)F)cc2-c2nc(C)nc(N)n2)cn1 [Example 262, 4-(5-(Difluoromethoxy)-2-(6-Methoxypyridin-3-Ylamino)Pyridin-3-yl)-6-Methyl-1,3,5-Triazin-2-Amine] | –
23 | > 10000 | 643 | Cc1nc(N)nc(-c2cccnc2Nc2cc[nH]c(=O)c2)n1 [Example 263, 4-(3-(4-Amino-6-Methyl-1,3,5-Triazin-2-yl)Pyridin-2-Ylamino)Pyridin-2(1H)-One] | –
24 | 486 | 369 | CC(=O)Nc1ccc(Nc2ncc(CN3CCN(S(C)(=O)=O)CC3)cc2-c2nc(C)nc(N)n2)cc1F [Example 267, N-(4-(3-(4-Amino-6-Methyl-1,3,5-Triazin-2-yl)-5-((4-(Methylsulfonyl)Piperazin-1-yl)Methyl)Pyridin-2-Ylamino)-2-Fluorophenyl)Acetamide] | –
25 | 739 | 103 | CC(=O)Nc1ccc(Nc2ncc(CN3CCN(S(C)(=O)=O)CC3)cc2-c2nc(C)nc(N)n2)cc1 [Example 268, N-(4-(3-(4-Amino-6-Methyl-1,3,5-Triazin-2-yl)-5-((4-(Methylsulfonyl)Piperazin-1-yl)Methyl)Pyridin-2-Ylamino)Phenyl)Acetamide] | –
26 | 18 | 32 | COc1ncc(Nc2ncc([C@H](C)N3CCOCC3)cc2-c2cc(N)nc(C)n2)cc1F [Example 275, 6-(2-((5-Fluoro-6-Methoxy-3-Pyridinyl)Amino)-5-((1S)-1-(4-Morpholinyl)Ethyl)-3-Pyridinyl)-2-Methyl-4-Pyrimidinamine] | –
27 | 91 | 17 | COc1ncc(Nc2ncc([C@@H](C)N3CCOCC3)cc2-c2cc(N)nc(C)n2)cc1F [Example 276, 6-(2-((5-Fluoro-6-Methoxy-3-Pyridinyl)Amino)-5-((1R)-1-(4-Morpholinyl)Ethyl)-3-Pyridinyl)-2-Methyl-4-Pyrimidinamine] | –
28 | 16 | 6 | COc1ncc(Nc2ncc(C(C)(C)N3CCOCC3)cc2-c2nc(C)nc(N)n2)cc1F [Example 281, 4-(2-(5-Fluoro-6-Methoxypyridin-3-Ylamino)-5-(2-Morpholinopropan-2-yl)Pyridin-3-yl)-6-Methyl-1,3,5-Triazin-2-Amine] | –
29 | 26 | 7 | COc1ccc(Nc2ncc(C3(N4CCN(S(C)(=O)=O)CC4)CC3)cc2-c2nc(C)nc(N)n2)cn1 [Example 282, 4-(2-(6-Methoxypyridin-3-Ylamino)-5-(1-(4-(Methylsulfonyl)Piperazin-1-yl)Cyclopropyl)Pyridin-3-yl)-6-Methyl-1,3,5-Triazin-2-Amine] | –
30 | 4 | 3 | COc1ncc(Nc2ncc(C(C)N3CCN(S(C)(=O)=O)CC3)nc2-c2cc(N)nc(C)n2)cc1F (stereo not shown) [Example 283, 6-(3-(5-Fluoro-6-Methoxypyridin-3-Ylamino)-6-(1-(4-(Methylsulfonyl)Piperazin-1-yl)Ethyl)Pyrazin-2-yl)-2-Methylpyrimidin-4-Amine] | –
31 | 204 | 20 | Cc1nc(N)nc(-c2cc([C@@H](C)N3CCN(S(C)(=O)=O)CC3)cnc2Nc2cc(F)c3cccnc3c2)n1 [Example 287, (R)—N-(3-(4-Amino-6-Methyl-1,3,5-Triazin-2-yl)-5-(1-(4-(Methylsulfonyl)Piperazin-1-yl)Ethyl)Pyridin-2-yl)-5-Fluoroquinolin-7-Amine] | –
32 | 33 | 45 | Cc1nc(N)nc(-c2cc(C(C)N3CCOCC3)cnc2Nc2ccc3scnc3c2)n1 (stereo not shown) [Example 288, N-(3-(4-Amino-6-Methyl-1,3,5-Triazin-2-yl)-5-(1-Morpholinoethyl)Pyridin-2-yl)Benzo[D]Thiazol-5-Amine] | –
